According to patent US20210253598A1, “ARYL ANNULATED MACROCYCLIC INDOLE DERIVATIVES” (priority 2017, published 2021):
Counter-ions that a name gives are not always drawn. Like-named read-outs stand apart in the source and are kept apart here. Blank lines part the entries; values can stand above or below the compound they belong to.

Experiments:
[1] = molecular target: BCL-2 (Homo sapiens, UniProt P10415); experiment: Protein-protein interaction assay BCL-2/Bad BH3 peptide, TR-FRET (BCL-2 assay, Assay 3); format: binding; settings: His-BCL-2 / Bad BH3 peptide, median
Sequence of BCL-2 (P10415 1-211): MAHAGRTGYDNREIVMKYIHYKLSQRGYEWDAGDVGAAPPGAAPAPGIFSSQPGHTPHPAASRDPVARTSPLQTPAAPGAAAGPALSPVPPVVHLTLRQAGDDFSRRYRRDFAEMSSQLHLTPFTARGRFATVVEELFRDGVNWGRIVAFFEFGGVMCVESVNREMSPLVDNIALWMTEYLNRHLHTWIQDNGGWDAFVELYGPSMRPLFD

[2] = tested on: SUDHL5; experiment: Anti-proliferative effect in SUDHL5 cells, CellTiter-Glo (Assay 7); format: cell-based; settings: Homo sapiens, SU-DHL-5, 72 h, SUDHL5, 72 hours incubation, CellTiter-Glo; median; read-out: Antiproli SUDHL5 [M] (median)
Method in brief: (§1)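 Proliferation is measured as luminescence from CellTiter-Glo after cells grow with compound for 72 h in a humidified 37 °C incubator. A reference plate read at time zero supplies the day 0 baseline, and DMSO wells serve as control for IC50 calculation.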

[3] = tested on: SUDHL5; experiment: Induction of caspase-3/7 activity in SUDHL5 cells (Assay 4); format: cell-based; settings: SUDHL5, 3 hours treatment, Caspase-Glo 3/7, median, read-out: Caspase SUDHL5 [M] (median)
Method in brief: (§2)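 DLBCL lines SUDHL5 and SUDHL10 were treated with compound for 3 h at 37 °C. Caspase-3/7 activity was then read by Caspase-Glo 3/7 luminescence after 1 h at 37 °C. Medium-only background was subtracted and values were normalized to the mean of DMSO-treated cells.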

[4] = molecular target: BCL-XL (Homo sapiens, UniProt Q07817); experiment: Protein-protein interaction assay BCL-XL/Bad BH3 peptide, TR-FRET (BCL-XL assay, Assay 2); format: binding; settings: His-BCL-XL / Bad BH3 peptide, median
Sequence of BCL-XL (Q07817 1-212): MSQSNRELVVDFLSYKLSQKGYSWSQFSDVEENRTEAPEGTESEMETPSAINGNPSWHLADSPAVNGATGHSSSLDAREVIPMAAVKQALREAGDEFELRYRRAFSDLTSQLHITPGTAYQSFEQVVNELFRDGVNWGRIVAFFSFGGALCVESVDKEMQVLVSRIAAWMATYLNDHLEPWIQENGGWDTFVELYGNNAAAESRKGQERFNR

[5] = tested on: SUDHL5; experiment: Induction of cytotoxicity in SUDHL5 cells, CellTiter-Glo (Assay 6); format: cell-based
Method in brief: (§3)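 Viability of treated lymphoma cells is measured by luminescence with CellTiter-Glo reagent, incubated 15 minutes at room temperature. Compound exposure lasts 5 hours at 37° C.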

[6] = tested on: SUDHL10; experiment: Induction of cytotoxicity in SUDHL10 cells, CellTiter-Glo (Assay 6); format: cell-based
Method in brief: as §3

[7] = tested on: SUDHL10; experiment: Induction of caspase-3/7 activity in SUDHL10 cells (Assay 4); format: cell-based; settings: SUDHL10, 3 hours treatment, Caspase-Glo 3/7, median, read-out: Caspase SUDHL10 [M] (median)
Method in brief: as §2

[8] = tested on: A2780; experiment: Anti-proliferative effect in A2780 cells, CellTiter-Glo (Assay 7); format: cell-based; settings: A2780, 72 hours incubation, CellTiter-Glo, several values per example, read-out: Antiproli A2780
Method in brief: as §1

[9] = tested on: MV-4-11; experiment: Anti-proliferative effect in MV-4-11 cells, CellTiter-Glo (Assay 7); format: cell-based; settings: MV-4-11, 72 hours incubation, CellTiter-Glo, several values per example, read-out: Antiproli MV-4-11
Method in brief: as §1

[10] = molecular target: MCL-1 (Homo sapiens, UniProt Q07820, K194A/K197A/R201A); experiment: Protein-protein interaction assay MCL-1/Noxa BH3 peptide, TR-FRET (MCL-1 assay, Assay 1); format: binding; settings: MCL-1 Assay [M] (median), MBP-MCL-1 / Noxa BH3 peptide
Sequence of MCL-1 (Q07820 173-321 K194A/K197A/R201A, looked up): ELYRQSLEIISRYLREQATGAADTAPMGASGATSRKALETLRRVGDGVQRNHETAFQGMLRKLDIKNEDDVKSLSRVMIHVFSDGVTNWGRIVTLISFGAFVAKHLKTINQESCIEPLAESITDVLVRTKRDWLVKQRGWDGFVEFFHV
Method in brief: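 Human MBP-fused MCL-1 (aa 173-321; 1 nM final) was pre-incubated 10 min at 22 °C with compound in pH 7 Tris buffer containing NaCl, KF, Tween-20, DTT and BGG. Displacement of biotinylated Noxa BH3 peptide was read by TR-FRET (anti-MBP-Eu cryptate/streptavidin-XL665) after 1 h at 22 °C plus overnight at 4 °C. IC50 came from four-parameter fits against DMSO controls.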

[11] = Homo sapiens, SU-DHL-5, 5 h, SUDHL5, 5 hours incubation, median, read-out: Cytotox SUDHL5 [M] (median)
[12] = Homo sapiens, SU-DHL10, 5 h, SUDHL10, 5 hours incubation, median, read-out: Cytotox SUDHL10 [M] (median)

SMILES: Cc1c2c(nn1C)COCc1nc3ccccc3nc1Cn1c(C(=O)O)c(CCCOc3cccc4ccccc34)c3cccc-2c31 (racemic) [Example 10, (rac)-4,5-Dimethyl-19-[3-(naphthalen-1-yloxy)propyl]-5,7,9,16-tetrahydroindolo[1′,7′:6,7,8]-pyrazolo[4′,3′:9,10][1,6]oxazacycloundecino[3,4-b]quinoxaline-18-carboxylic Acid]
IC50 [1]: > 20 µM | IC50 [2]: 5.1e-06 M | EC50 ([3]; Homo sapiens, SU-DHL-5, 3 h): 4.3e-06 M | IC50 [4]: > 20 µM | IC50 [5, 11]: 5.6e-06 M | IC50 [6, 12]: 1.4e-05 M | EC50 ([7]; Homo sapiens, SU-DHL10, 3 h): 1.8e-05 M | IC50 [8]: 20.6 µM | IC50 ([8]; Homo sapiens, A2780, 72 h): > 33 µM

SMILES: Cc1c2c(nn1C)COCc1ccccc1Cn1c(C(=O)O)c(CCCOc3cccc4c3CCCC4)c3ccc(F)c-2c31 (racemic) [Example 62, (rac)-15-Fluoro-13,14-dimethyl-1-(3-((5,6,7,8-tetrahydronaphthalen-1-yl)oxy)propyl)-4,9,11,13-tetrahydrobenzo[3,4]pyrazolo[4′,3′:9,10][1,6]oxaazacycloundecino[8,7,6-hi]indole-2-carboxylic Acid]
IC50 [1]: > 20 µM | IC50 [2]: 3.1e-06 M | IC50 ([9]; Homo sapiens, MV4-11, 72 h): 6.36 µM | EC50 ([3]; Homo sapiens, SU-DHL-5, 3 h): 3.2e-06 M | IC50 [4]: > 20 µM | IC50 [10]: 2.6e-09 M | IC50 [5, 11]: 2.9e-06 M | IC50 [6, 12]: 5.2e-06 M | EC50 ([7]; Homo sapiens, SU-DHL10, 3 h): 1e-05 M | IC50 ([8]; Homo sapiens, A2780, 72 h): 13.9 µM

SMILES: CCc1c2c(nn1C)COCc1ccccc1Cn1c(C(=O)O)c(CCCOc3cc(C)c(Cl)c(C)c3)c3ccc(F)c-2c31 (racemic) [Example 79, (rac)-1-(3-(4-Chloro-3,5-dimethylphenoxy)propyl)-14-15-fluoro-13-methyl-4,9,11,13-tetrahydrobenzo[3,4]pyrazolo[4′,3′:9,10][1]oxa[6]azacycloundecino[8,7,6-hi]indole-2-carboxylic Acid]
IC50 [1]: 15.6 µM | IC50 [2]: 9.2e-06 M | IC50 ([9]; Homo sapiens, MV4-11, 72 h): 2.33 µM | EC50 ([3]; Homo sapiens, SU-DHL-5, 3 h): 2.9e-06 M | IC50 [4]: 19.6 µM | IC50 [10]: 2.6e-09 M | IC50 [5, 11]: 2.1e-06 M | IC50 [6, 12]: 1e-05 M | EC50 ([7]; Homo sapiens, SU-DHL10, 3 h): 1.3e-05 M | IC50 ([8]; Homo sapiens, A2780, 72 h): 17 µM

SMILES: Cc1nn(C)c2c1-c1c(F)ccc3c(CCCOc4cccc5c4CCC5)c(C(=O)O)n(c13)Cc1ccccc1COC2 (racemic) [Example 84, (rac)-1-(3-((2,3-Dihydro-1H-inden-4-yl)oxy)propyl)-15-fluoro-12,14-dimethyl-4,9,11,12-tetrahydrobenzo[3,4]pyrazolo[4′,3′:9,10][1]oxa[6]azacycloundecino[8,7,6-hi]indole-2-carboxylic Acid]
IC50 [1]: > 20 µM | IC50 [2]: 7.7e-06 M | IC50 ([9]; Homo sapiens, MV4-11, 72 h): 12.5 µM | EC50 ([3]; Homo sapiens, SU-DHL-5, 3 h): 9.8e-06 M | IC50 [4]: > 20 µM | IC50 [10]: 6.2e-09 M | IC50 [5, 11]: 1.1e-05 M | IC50 [6, 12]: 2.2e-05 M | EC50 ([7]; Homo sapiens, SU-DHL10, 3 h): 2.7e-05 M | IC50 ([8]; Homo sapiens, A2780, 72 h): 31 µM

SMILES: CCc1nn(C)c2c1-c1c(F)ccc3c(CCCOc4cccc5c4CCCC5)c(C(=O)O)n(c13)Cc1ccccc1COC2 (racemic) [Example 88, (rac)-14-Ethyl-15-fluoro-12-methyl-1-(3-((5,6,7,8-tetrahydronaphthalen-1-yl)oxy)propyl)-4,9,11,12-tetrahydrobenzo[3,4]pyrazolo[4′,3′:9,10][1,6]oxaazacycloundecino[8,7,6-hi]indole-2-carboxylic Acid]
IC50 [1]: 13.7 µM | IC50 [2]: 6e-06 M | IC50 ([9]; Homo sapiens, MV4-11, 72 h): 9.93 µM | EC50 ([3]; Homo sapiens, SU-DHL-5, 3 h): 6.2e-06 M | IC50 [4]: > 20 µM | IC50 [10]: 7.4e-09 M | IC50 [5, 11]: 7.4e-06 M | IC50 [6, 12]: 1.5e-05 M | EC50 ([7]; Homo sapiens, SU-DHL10, 3 h): 1.7e-05 M | IC50 ([8]; Homo sapiens, A2780, 72 h): 15.1 µM

SMILES: Cc1c2c(nn1C)CNCc1ccccc1Cn1c(C(=O)O)c(CCCOc3cccc4ccccc34)c3cccc-2c31 (single isomer, unassigned; enantiomer 1) [Example 12, 4,5-Dimethyl-17-[3-(naphthalen-1-yloxy)propyl]-7,8,9,14-tetrahydro-5H-indolo[1,7-bc]pyrazolo-[4,3-e][2,8]benzodiazacycloundecine-16-carboxylic acid-Trifluoroacetic Acid Salt (Enantiomer 1)]
IC50 [1]: > 20 µM | EC50 [3]: 2.4e-06 M | IC50 [4]: > 20 µM | IC50 [10]: 2.9e-09 M | IC50 ([5]; read-out: Cytotox SUDHL5 [M] (median), SUDHL5, 5 hours incubation): 1.9e-06 M | IC50 ([6]; read-out: Cytotox SUDHL10 [M] (median), SUDHL10, 5 hours incubation): 5e-06 M | EC50 [7]: 4.9e-06 M

SMILES: Cc1cc(OCCCc2c(C(=O)O)n3c4c(c(F)ccc24)-c2c(nn(C)c2C)COCc2ccccc2C3)cc(C)c1Cl [Example 60, (rac)-1-(3-(4-Chloro-3,5-dimethylphenoxy)propyl)-15-fluoro-13,14-dimethyl-4,9,11,13-tetrahydrobenzo[3,4]pyrazolo[4′,3′:9,10][1,6]oxaazacycloundecino[8,7,6-hi]indole-2-carboxylic Acid]
IC50 [1]: 19.8 µM | IC50 [2]: 5.1e-06 M | IC50 ([9]; Homo sapiens, MV4-11, 72 h): 5.75 µM | EC50 ([3]; Homo sapiens, SU-DHL-5, 3 h): 3e-06 M | IC50 [4]: > 20 µM | IC50 [10]: 2.9e-09 M | IC50 [5, 11]: 3.7e-06 M | IC50 [6, 12]: 7.6e-06 M | EC50 ([7]; Homo sapiens, SU-DHL10, 3 h): 1.2e-05 M | IC50 ([8]; Homo sapiens, A2780, 72 h): 23 µM

More lines, main results first:

IC50 [1]: > 20 µM | IC50 [2]: 2.1e-06 M | IC50 ([9]; Homo sapiens, MV4-11, 72 h): 3.57 µM | EC50 ([3]; Homo sapiens, SU-DHL-5, 3 h): 2.5e-06 M | IC50 [4]: > 20 µM | IC50 [10]: 2.1e-09 M | EC50 ([7]; Homo sapiens, SU-DHL10, 3 h): 5.8e-06 M | IC50 ([8]; Homo sapiens, A2780, 72 h): 22.8 µM
SMILES: Cc1c2c(nn1C)COCc1ccccc1Cn1c(C(=O)O)c(CCCOc3cccc4c3CCC4)c3ccc(F)c-2c31 (racemic) [Example 61, (rac)-1-(3-((2,3-Dihydro-1H-inden-4-yl)oxy)propyl)-15-fluoro-13,14-dimethyl-4,9,11,13-tetrahydrobenzo[3,4]pyrazolo[4′,3′:9,10][1,6]oxaazacycloundecino[8,7,6-hi]indole-2-carboxylic Acid]
IC50 [5, 11]: 2.3e-06 M | IC50 [6, 12]: 5e-06 M

IC50 [1]: 18.1 µM | IC50 [2]: 6.2e-06 M | IC50 ([9]; Homo sapiens, MV4-11, 72 h): > 33 µM | EC50 ([3]; Homo sapiens, SU-DHL-5, 3 h): 9.3e-06 M | IC50 [4]: > 20 µM | IC50 [10]: 4.5e-09 M | EC50 ([7]; Homo sapiens, SU-DHL10, 3 h): 2.3e-05 M | IC50 ([8]; Homo sapiens, A2780, 72 h): 19.7 µM
SMILES: Cc1c2c(nn1C)COCc1ccccc1Cn1c(C(=O)O)c(CCCOc3ccc(F)c4ccccc34)c3ccc(F)c-2c31 (racemic) [Example 63, (rac)-15-Fluoro-1-(3-((4-fluoronaphthalen-1-yl)oxy)propyl)-13,14-dim4,9,11,13-tetrahydrobenzo[3,4]pyrazolo[4′,3′:9,10][1,6]oxaazacycloundecino[8,7,6-hi]indole-2-carboxylic Acid]
IC50 [5, 11]: 8.3e-06 M | IC50 [6, 12]: 1.5e-05 M

IC50 [1]: 15.8 µM | IC50 [2]: 3.7e-06 M | IC50 ([9]; Homo sapiens, MV4-11, 72 h): 9.05 µM | IC50 [9]: 10.1 µM | EC50 ([3]; Homo sapiens, SU-DHL-5, 3 h): 3.3e-06 M | IC50 [4]: > 20 µM | IC50 [10]: 3.1e-09 M | EC50 ([7]; Homo sapiens, SU-DHL10, 3 h): 1.3e-05 M | IC50 [8]: 25 µM | IC50 ([8]; Homo sapiens, A2780, 72 h): 16.6 µM
SMILES: CCc1c2c(nn1C)COCc1ccccc1Cn1c(C(=O)O)c(CCCOc3ccc(F)c4ccccc34)c3ccc(F)c-2c31 (racemic) [Example 76, (rac)-14-Ethyl-15-fluoro-1-(3-((4-fluoronaphthalen-1-yl)oxy)propyl)-13-methyl-4,9,11,13-tetrahydrobenzo[3,4]pyrazolo[4′,3′:9,10][1]oxa[6]azacycloundecino[8,7,6-hi]indole-2-carboxylic Acid]
IC50 [5, 11]: 3.4e-06 M | IC50 [6, 12]: 9.4e-06 M
